For orientation: IC50 means the concentration at which inhibition is half-maximal. Low values mean inhibition by little substance, high ones a need for much substance. As usually defined, the Tmax is the time from dosing to the highest level. Usually AUC stands for concentration integrated over time. For orientation: bioavailability means the share of a dose that reaches the circulation, judged against a reference dose that is usually intravenous. High values mean much systemic uptake, low ones little systemic uptake. In general, half-life refers to the time in which the quantity being followed falls by half. A lower half-life goes with rapid decline. By Cmax is commonly meant the peak of the concentration-time curve. Usually Ki stands for the equilibrium dissociation constant of an inhibitor or competing ligand from its target. Low values mean a stronger hold on the target, high ones a looser hold on the target.

The values below come from ChEMBL document CHEMBL1145039, “Synthesis and biological evaluation of thiol-based inhibitors of glutamate carboxypeptidase II: discovery of an orally active GCP II inhibitor” (J Med Chem, 2003).

Bounds are passed on as bounds.

In data set [1] the target is T1, Glutamate carboxypeptidase 2 (Homo sapiens, UniProt Q04609).
T1 sequence (Q04609 whole entry): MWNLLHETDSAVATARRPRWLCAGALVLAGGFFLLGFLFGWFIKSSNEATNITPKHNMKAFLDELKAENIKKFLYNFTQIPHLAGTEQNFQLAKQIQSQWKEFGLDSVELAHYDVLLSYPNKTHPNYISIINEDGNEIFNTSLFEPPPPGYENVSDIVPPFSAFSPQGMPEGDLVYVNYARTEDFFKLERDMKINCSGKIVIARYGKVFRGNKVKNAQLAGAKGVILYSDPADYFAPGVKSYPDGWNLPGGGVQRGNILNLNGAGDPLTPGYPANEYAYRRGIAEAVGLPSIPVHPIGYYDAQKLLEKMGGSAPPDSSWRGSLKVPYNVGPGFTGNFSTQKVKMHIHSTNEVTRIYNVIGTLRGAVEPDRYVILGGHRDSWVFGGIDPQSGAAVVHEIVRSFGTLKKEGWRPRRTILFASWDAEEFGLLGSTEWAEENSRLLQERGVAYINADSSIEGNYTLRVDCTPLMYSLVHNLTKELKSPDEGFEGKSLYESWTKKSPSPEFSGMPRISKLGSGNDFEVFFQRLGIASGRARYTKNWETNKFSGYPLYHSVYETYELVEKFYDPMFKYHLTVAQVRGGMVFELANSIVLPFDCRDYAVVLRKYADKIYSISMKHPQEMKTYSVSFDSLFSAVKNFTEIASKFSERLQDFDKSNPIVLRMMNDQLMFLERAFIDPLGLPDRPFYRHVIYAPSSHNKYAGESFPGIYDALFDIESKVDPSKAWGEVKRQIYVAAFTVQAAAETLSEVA
Description: Inhibition of N-acetyl-L-aspartyl-[3H]L-glutamate binding to glutamate carboxypeptidase II (GCP II)
Data set [2] in a line: Pharmacokinetic constant(Tmax) after orally administered dose of 10 mgkg in rats. Conditions: rat, in vivo, po, 10 mg/kg. Further details: dose 10 mgkg, route oral. The class given is ADME, organism-based.
A short description of data set [3]: Pharmacokinetic constant Area under curve(AUC) was determined after orally administered dose of 10 mgkg in rats. The class given is ADME, organism-based. Further details: dose 10 mgkg, route oral. Conditions: rat, in vivo, po, 10 mg/kg.
Data set [4] can be described thus: Bioavailability after orally administered dose of 10 mgkg in rats. The note with it: rat, in vivo, po. The data set is classed as ADME, organism-based.
A short description of data set [5]: Half life after intravenously administered dose of 10 mgkg in rats. The note with it: rat, in vivo, iv, 10 mg/kg. The data set is classed as ADME, organism-based. Further details: dose 10 mgkg, route intravenous.
Data set [6] is described as follows: Pharmacokinetic constant Area under curve(AUC) was determined after intravenously administered dose of 10 mgkg in rats. The data set is classed as ADME, organism-based. Further details: dose 10 mgkg, route intravenous. The note with it: rat, in vivo, iv, 10 mg/kg.
Data set [7] can be described thus: Plasma concentration was determined after orally administered dose of 10 mgkg in rats. The class given is ADME, organism-based. Further details: dose 10 mgkg, route oral. The note with it: rat, po, 10 mg/kg.
Data set [8] can be described thus: Half life after orally administered dose of 10 mgkg in rats. The class given is ADME, organism-based. Further details: dose 10 mgkg, route oral. Conditions: rat, in vivo, po, 10 mg/kg.
Data set [9] addresses T1, Glutamate carboxypeptidase 2. This is another data set of the same source.
Description: In vitro inhibitory activity against glutamate carboxypeptidase II (GCP II) using N-acetyl-L-aspartyl-[3H]L-glutamate as a substrate
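Throughout, for IC50: inhibition of binding of tritium-labelled N-acetyl-L-aspartyl-L-glutamate to the enzyme.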

`O=C(O)CCC(CCS)C(=O)O` (stereo not given): the IC50 in data set [1] turned out to be 580 nM. That is a sub-micromolar value.

`O=C(O)CCCCS` registered an IC50 in data set [1] of 1400 nM. This IC50 is about 2.4-fold higher than that of the compound before.

The compound `O=C(O)CCC(C(=O)O)P(=O)(O)O` (stereo not given) showed an IC50 in data set [1] of 1400 nM. This lies in the single-digit micromolar range.

Regarding `O=C(O)CCC(CCCS)C(=O)O` (stereo not given), the Tmax in data set [2] was 9.6 min. Besides, the AUC in [3] came to 1820 ng·h/mL; in data set [6] it was 2550 ng·h/mL. Further, the bioavailability in data set [4] is 71%. The half-life in data set [5] is 63 min; in [8], 70.8 min. Further, in [7], the Cmax turned out to be 2230 ng/mL. For the compound `O=C(O)CCC(S)C(=O)O` (stereo not given), the midpoint of inhibition in data set [1], the IC50, lay at 2600 nM.

As to `O=C(O)CCC(CCCSC(c1ccccc1)(c1ccccc1)c1ccccc1)C(=O)O` (stereo not given), the IC50 in [1] was > 10000 nM. In data set [1], `O=C(O)CCC(CCP(=O)(O)O)C(=O)O` (stereo not given) showed an IC50 of 1200 nM. For `O=C(O)C(CS)Cc1ccccc1` (stereo not given), in data set [9], the Ki worked out at 11 nM. This lies in the double-digit nanomolar range. `O=C(O)CCC(CCCCS)C(=O)O` (stereo not given) displayed an IC50 in data set [1] of 1100 nM. `O=C(O)CCC(CS)C(=O)O` (stereo not given): the IC50 in [1] was 6000 nM. In the case of `O=C(O)CCC(CCCCCS)C(=O)O` (stereo not given), in data set [1], half-maximal inhibition (IC50) was put at 2600 nM. This IC50 is about 2.3-fold lower than that of the compound before. In the case of `O=C(O)CCC(CCCSSCCCC(CCC(=O)O)C(=O)O)C(=O)O` (stereo not given), the Tmax in data set [2] came to 54 min. For the same compound, the AUC in data set [3] was determined as 53 ng·h/mL; in data set [6], 190 ng·h/mL. For the same compound, the half-life in data set [5] was 22.2 min; in data set [8] it was 116 min. This compound also had a Cmax in data set [7] of 44 ng/mL. The IC50 in data set [1] stood at 3100 nM. For the compound `CSCCCC(CCC(=O)O)C(=O)O` (stereo not given), in data set [1], half-maximal inhibition (IC50) required 6500 nM.
